The subject of data set [1] is Japanese encephalitis virus. The settings on record: mice given a lethal dose of Japanese encephalitis virus; cited from earlier work.
Data set [2] deals with Japanese encephalitis virus. The settings on record: compared with Dengue virus; cited from earlier work.
Data set [3] concerns Zika virus (FSS13025). Nature of the data set: Zika viral load in liver of Ifnar1-/- mice (ZIKV NS1 gene real time PCR). The format is in vivo, Ifnar1-/- mice (C57BL/6 background). As to conditions: 100 mg/kg BW intraperitoneal, day 0 to day 3, ZIKV NS1 gene by real time PCR. As to the method: FIGS. 3A-3B. Zika viral load in liver of Ifnar1−/− mice. After euthanizing the mice, liver tissue samples were stored in RNAase later buffer, and after homogenization in lysis buffer the total RNA was extracted using Rneasy column (Qiagen). cDNA was prepared using RT reaction. The expression level of the ZIKV NS1 gene was quantified by real time PCR using specific primers. Statistical analysis was done by unpaired t-test using GraphPad Prism software. *p<0.05 is considered as significant (FIG. 3B). There was a 68% decrease in the viral load in the liver with castanospermine treatment (FIG. 3A).
(§1) Ifnar1−/− mice (C57BL/6 background) were obtained (Muller U. et al. “Functional role of type I and type II interferons in antiviral defense”. Science. 1994; 264(5167):1918-21. Epub 1994/06/24). Out of 18 total Ifnar1−/− mice, two mice were dosed with castanospermine and media, 8 mice (male+female) were dosed with saline and ZIKV, and 8 mice were dosed with castanospermine and ZIKV on day-0. The drug was continued for three more days and animals were sacrificed on day-3. Body weight and water consumption were monitored daily.
(Quantitative PCR measures a nucleic acid by following its amplification.)

Data set [4] deals with Zika virus (FSS13025). In words: Zika viral load in serum of Ifnar1-/- mice (ZIKV NS1 ELISA). The settings on record: 100 mg/kg BW intraperitoneal, day 0 to day 3. In kind it is in vivo, Ifnar1-/- mice (C57BL/6 background).
From the text: FIGS. 2A-2B. Zika viral load in serum in Ifnar1−/− mice. Serum was separated from the blood by centrifugation. Viral load (NS1) was estimated using the ZIKV NS1 ELISA Kit (BioFront Technologies, Fl, USA) as per the manual. Statistical analysis was done by unpaired t-test using GraphPad Prism software. *p<0.05 is considered as significant (FIG. 2B). With castanospermine treatment, there was 46% reduction in Zika virus load as estimated by NS1 protein in the serum (FIG. 2A).
as §1
In general terms: ELISA stands for enzyme-linked immunosorbent assay.

The subject of data set [5] is West Nile Virus. The settings on record: cited from earlier work.
Data set [6] concerns FSS-13025 strain of ZIKV. In words: Anti-ZIKV activity in SNB-19 cells, ZIKV-NS1 Western blot. The settings on record: 100 μm, 500 μm and 1 mM, one hour prior to inoculation (MOI=1), harvested 24 hours post-infection. In kind it is cell-based, Zika virus. As to the method: FIG. 1. Castanospermine as anti-ZIKV compound. Castanospermine was screened for antiviral activity against ZIKV infection. Glioblastoma SNB-19 cells were treated with castanospermine at the indicated concentrations one hour prior to inoculation with the FSS-13025 strain of ZIKV (at MOI=1). Cells were harvested 24 hours post-infection and analyzed by Western blot for ZIKV-NS1 or GAPDH.
Cells of the glioblastoma SNB-19 cell line were maintained at 37° C. in 5% CO2 in […], 1× penicillin/streptomycin, and 10% fetal bovine serum (Invitrogen). SNB-19 cells were treated with castanospermine at increasing concentrations (100 μm, 500 μm, and 1 mM) one hour prior to inoculation with the FSS-13025 strain of ZIKV. Cells were harvested 24 hours post-infection and analyzed by Western blot for ZIKV-NS1 or GAPDH.

For data set [7] the following is noted: by endogenous esterases; cited from earlier work.

In the case of `CCCCCCCCCN1C[C@H](O)[C@@H](O)[C@H](O)[C@H]1CO` [NN-DNJ, N-nonyl-deoxynojirimycin], the mortality rate entry in data set [1] is given as “decreased mortality rate”. Moreover, in data set [2], the “suppression of cell infection by Japanese encephalitis virus” value is listed as “suppressed cell infection but to a lesser extent than with Dengue virus”.
Consider `O[C@H]1[C@H](O)[C@@H](O)CN2CC[C@H](O)[C@H]12` [castanospermine, (1S,6S,7R,8aR)-Tetrahydroxyoctahydroindolizine], for which the “decrease in the viral load in the liver” value in data set [3] is reported as 68%. Further, the “reduction in Zika virus load as estimated by NS1 protein in the serum” value in data set [4] is 46%. Also, the “sensitivity of West Nile Virus” value in data set [5] is given as “insensitive”. In data set [6], the “inhibition of ZIKV infection (ZIKV protein NS1 expression)” value is reported as “significantly inhibit ZIKV infection”.
As to `CCCC(=O)O[C@H]1CN2CC[C@H](O)[C@@H]2[C@@H](O)[C@@H]1O` [celgosivir, 6-O-butanoyl castanospermine], the conversion to castanospermine result in data set [7] is reported as “rapidly converted”.

Values taken from patent US10328061B2, “Treatment of Zika virus infections using alpha-glucosidase inhibitors” (FLORIDA STATE UNIVERSITY RESEARCH FOUNDATION, INC., priority 2016, dated 2019).
